# Experimental data reported in patent publication US20100178658A1, “SCREENING ASSAYS FOR INHIBITORS OF BETA AMYLOID PEPTIDE ION CHANNEL FORMATION” (The Regents of the University of Michigan, priority 2007, published 2010).
# Entries after “also recorded” stand apart in the source; their conditions may differ.
# Tests used:
# [1] = target: T1, Aβ fibrils (Homo sapiens, UniProt P05067); details: cited from earlier work; for Binding and coating of Aβ fibrils (inhibition of IgG-Aβ fibril interactions): ELISA with monoclonal anti-Aβ IgG clone 6E10, Inbar et al.
# T1 construct: the Aβ fibrils are grown from synthetic Aβ (1-42) peptides by incubating the peptides (74 μM) in ultrapure water
# [2] = target: T2, Aβ peptide (1-42) ion channels (Homo sapiens, UniProt P05067); test: Electrophysiological planar lipid bilayer assay for Aβ peptide ion channel activity (bilayer chambers, voltage clamp); type: biochemical; details: for Inhibition of Aβ peptide ion channel formation (pore forming activity): 37 μM Aβ peptide, test compound in molar ratio 1:1, added at the same time as Aβ peptide, planar lipid bilayer; for Inhibition of Aβ pores / ion channel activity of Aβ: electrophysiological screening assay of FIGS. 3-5; for Disruption of preformed Aβ ion channels: added after current activity was observed
# T2 construct: purchased Innovagen, Lund, SE or Bachem Bioscience Inc., King of Prussia, Pa., USA
# Source text: Ion channel measurements. Screening assays can be performed using single channel recordings in “voltage clamp mode” using Ag/AgCl electrodes (Warner Instruments) in each compartment of the bilayer chambers. Data acquisition and storage can be carried out using custom software in combination with either an EPC-7 patch clamp amplifier from List Medical Electronic (set at a gain of 10 mV pA-1 and a filter cutoff frequency of 3 kHz) or a Geneclamp 500 amplifier from Axon Instruments (with a CV-5B 100GU headstage, set at a gain of 100 mV pA-1 and filter cutoff frequency of 1 kHz). In some embodiments, patch clamp amplifiers, for example, the EPC-7 amplifier can be used for most folded bilayers and the Geneclamp 500 amplifier for most painted bilayers. The data acquisition boards for both amplifiers were set to a sampling frequency of 15 kHz. Current traces can be further filtered using a digital Gaussian low-pass filter with a cutoff frequency of 30 Hz. In some embodiments, the current traces used to generate data that can be recorded at applied potentials 50 mV and filtered at 10 Hz.
# Analysis of the single channel current traces can be made by computing histograms of the currents from the original current-time traces with ClampFit 9.2 software from Axon Instruments. From these histograms, the main current values can be extracted by fitting a Gaussian function to the peaks in the histograms. Single channel conductances can refer to the main conductance state (i.e. to the dominant peaks in the current histograms).
# The lipid mixture can be made from POPE:POPG (Avanti Polar Lipids) at 25 mg/ml (1:1) in Heptane. The pretreatment lipid solution can be POPE:POPG 20 mg/mL in Hexane. 2. The bilayer is formed in classic bilayer cups and chamber (Warner Instruments). This 2-part system consists of a black Delrin chamber and a cup of Delrin. Cups and chambers are designed such that addition of equal volumes to the cup and chamber (cis and trans sides) results in a balanced solution height, minimizing any pressure gradients across the bilayer membrane.
# The bilayer was formed over a 250-μm hole in a partition separating two Delrin compartments, the so called “painting technique.” First, droplets of pretreated lipid solution were placed on both sides of the hole, using 100 μL-Hamilton syringe. Once the droplet of hexane evaporates, both chambers (cis and trans) were symmetrically filled with 900 μL of buffer solution, 100 mM KH2PO4/K2HPO4 pH 7.4, at room temperature.
# When the bilayer set-up was already in place with Ag/AgCl electrodes in Faraday cage (a bilayer workstation which provides critical shielding of electromagnetic interference from outside sources and isolate vibration) the lipid solution (POPE:POPG in Heptane) can be painted directly over the hole by using a thin paintbrush. Blowing air underneath the hole using a Pasteur pipette to thin out the bilayer can be used until the appropriate capacitance (80-120 pF) is achieved. A voltage of ±100 mV was applied for at least 10 minutes to test stability of lipid bilayer.
# Aβ(1-42) (commercially available from Innovagen, Lund, SE or Bachem Bioscience Inc., King of Prussia, Pa., USA) is initially dissolved in deionized water at 1 mg/ml (221.5 μM) and stored at −20° C. The stock solution can be aliquotted to sufficient amount for each time use (90 μL). After the stable bilayer is constituted, the Aβ(1-42) solution can be added to the trans side of the chamber to obtain a final concentration of 37 μM. The solution is mixed well in the chamber under stirring for 5 minutes.
# Congo Red (Sigma) is dissolved in de-ionized (DI) water to achieve a concentration of 2.5 mg/ml (3.58 mM as a stock solution). (−)Nicotine hemisulfate (Sigma, St. Louis, Mo., USA) was diluted to 1.89 mM in DI water. Tannic acid (Riedel-de Haën, Seelze, Germany) is diluted to 20 mM in DI water.
# T2 sequence (P05067 672-713 limits assumed): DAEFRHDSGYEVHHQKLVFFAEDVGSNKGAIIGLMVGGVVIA
# T1 sequence (P05067 672-713 limits assumed): as above
compound,measurement,setting,value
O=C(OC[C@H]1O[C@@H](OC(=O)c2cc(O)c(O)c(OC(=O)c3cc(O)c(O)c(O)c3)c2)[C@H](OC(=O)c2cc(O)c(O)c(OC(=O)c3cc(O)c(O)c(O)c3)c2)[C@@H](OC(=O)c2cc(O)c(O)c(OC(=O)c3cc(O)c(O)c(O)c3)c2)[C@@H]1OC(=O)c1cc(O)c(O)c(OC(=O)c2cc(O)c(O)c(O)c2)c1)c1cc(O)c(O)c(OC(=O)c2cc(O)c(O)c(O)c2)c1 [Tannic acid],Binding to aggregated Aβ fibrils,[1],bind strongly
same,Inhibition of Aβ peptide ion channel formation (pore forming activity),[2],Inhibition of Aβ ion channel formation
same,Inhibition of Aβ pores / ion channel activity of Aβ,[2],inhibit ion channel activity of Aβ
same,Inhibition of Aβ pores / ion channel activity of Aβ,[2]; listed as tannic acid,inhibit Aβ pores
NCCc1ccc(O)c(O)c1 [dopamine],Inhibition of Aβ pores / ion channel activity of Aβ,[2],inhibit Aβ pores
O=S(=O)([O-])c1ccc(O)c2ccccc12.[Na+] [1-naphthol-4-sulfonate],Binding and coating of Aβ fibrils (inhibition of IgG-Aβ fibril interactions),[1],do not interact with Aβ fibrils
Diaminoacridine [DAA],Binding and coating of Aβ fibrils (inhibition of IgG-Aβ fibril interactions),[1],bind and coat Aβ fibrils
"Cc1ccc2c(c1)sc(-c1ccc(N(C)C)cc1)[n+]2C.[Cl-] [ThT, Thioflavin T]",Binding and coating of Aβ fibrils (inhibition of IgG-Aβ fibril interactions),[1],bind and coat Aβ fibrils
"CN1CCC[C@H]1c1cccnc1 [nicotine, (−)Nicotine hemisulfate]",Inhibition of Aβ peptide ion channel formation (pore forming activity),[2],eliminated ion channel pore forming activity
same,Amount of nicotine needed: disruption of preformed channels versus inhibition of de novo formed channels,[2]; comparison of preformed and de novo formed Aβ ion channels,required more nicotine than the inhibition de novo formed ion channels
same,Inhibition of Aβ pores / ion channel activity of Aβ,[2],inhibit Aβ pores
same,Concentration dependence of disruption of Aβ peptide ion channel activity,"[2]; nicotine added after observing Aβ current activity, 1:1, 1:2, 1:3 and 1:4 molar ratio",concentration-dependent disruption of Aβ peptide ion channel activity
same,Disruption of preformed Aβ ion channels,[2]; nicotine at 2-fold molar excess with respect to Aβ peptide (1-42),disrupted preformed ion channels
same,Disruption of preformed Aβ ion channels,[2]; nicotine at 4-fold molar excess (4:1) with respect to Aβ peptide (1-42),disrupted preformed ion channels almost completely; also recorded: disrupted preformed Aβ peptide ion channel activity almost completely
same,Time to almost complete disruption of preformed ion channels,[2]; nicotine at 4-fold molar excess with respect to Aβ peptide (1-42),≤ 10 min
Nc1c(/N=N/c2ccc(-c3ccc(/N=N/c4cc(S(=O)(=O)O)c5ccccc5c4N)cc3)cc2)cc(S(=O)(=O)O)c2ccccc12 [Congo Red],Binding to aggregated Aβ fibrils,[1],bind strongly
same,Inhibition of Aβ pores / ion channel activity of Aβ,[2],inhibit Aβ pores
